Test results as given in the NIST ThermoML archive (doi:10.1016/j.jct.2009.07.001).

Assay: excess molar enthalpy (molar enthalpy of mixing); xn = mol fraction of the nth substance listed
Conditions: 298.15 K, 101 kPa, Liquid, Calvet calorimetry

CCCCCCCCCCO [decan-1-ol] + CCCCOCCCC
Conditions	excess molar enthalpy [kcal/mol]
x1 = 0.0549	0.0829
x1 = 0.1045	0.13
x1 = 0.1508	0.159
x1 = 0.1992	0.18
x1 = 0.2491	0.194
x1 = 0.2975	0.204
x1 = 0.3443	0.207
x1 = 0.3964	0.208
x1 = 0.4484	0.214
x1 = 0.4966	0.199
x1 = 0.5428	0.186
x1 = 0.5887	0.175
x1 = 0.646	0.157
x1 = 0.6819	0.146
x1 = 0.7402	0.123
x1 = 0.7812	0.106
x1 = 0.8272	0.0825
x1 = 0.8767	0.0595
x1 = 0.9225	0.0356
